Laboratory results published in US9714247B2, “Multiple kinase pathway inhibitors” (Mannkind Corporation, priority 2012, dated 2017).
Like-named read-outs stand apart in the source and are kept apart here.

Legend:
DoHH2 = experiment: CellTiter-Glo proliferation/viability assay; type: cell-based, human; details: Homo sapiens, DOHH-2; 48 hrs; read-out: DoHH2 EC50
Src = Src (Homo sapiens (Human), UniProt P12931); experiment: biochemical
Ramos = experiment: CellTiter-Glo proliferation/viability assay; type: cell-based, human; details: Homo sapiens, Ramos, read-out: Ramos EC50
Lyn [1] = target: T1, Lyn (Homo sapiens (Human), UniProt P07948); experiment: biochemical
T1 sequence (P07948 whole entry): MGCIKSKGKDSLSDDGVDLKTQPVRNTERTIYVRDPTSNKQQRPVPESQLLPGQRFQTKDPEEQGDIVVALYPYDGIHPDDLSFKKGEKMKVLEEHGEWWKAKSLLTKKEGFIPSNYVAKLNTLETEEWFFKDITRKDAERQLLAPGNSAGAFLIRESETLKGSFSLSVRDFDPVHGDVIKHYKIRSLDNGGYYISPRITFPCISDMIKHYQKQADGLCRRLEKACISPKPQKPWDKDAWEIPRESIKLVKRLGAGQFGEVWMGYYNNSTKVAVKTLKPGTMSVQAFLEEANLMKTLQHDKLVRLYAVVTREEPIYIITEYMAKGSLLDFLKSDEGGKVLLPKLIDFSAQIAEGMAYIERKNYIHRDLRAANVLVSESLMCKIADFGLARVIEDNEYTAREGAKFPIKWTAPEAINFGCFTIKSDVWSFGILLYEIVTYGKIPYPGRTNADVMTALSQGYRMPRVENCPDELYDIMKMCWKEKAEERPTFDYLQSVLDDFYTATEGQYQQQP

BTK = BTK (Homo sapiens (Human), UniProt Q06187)
Sequence of BTK (Q06187 whole entry): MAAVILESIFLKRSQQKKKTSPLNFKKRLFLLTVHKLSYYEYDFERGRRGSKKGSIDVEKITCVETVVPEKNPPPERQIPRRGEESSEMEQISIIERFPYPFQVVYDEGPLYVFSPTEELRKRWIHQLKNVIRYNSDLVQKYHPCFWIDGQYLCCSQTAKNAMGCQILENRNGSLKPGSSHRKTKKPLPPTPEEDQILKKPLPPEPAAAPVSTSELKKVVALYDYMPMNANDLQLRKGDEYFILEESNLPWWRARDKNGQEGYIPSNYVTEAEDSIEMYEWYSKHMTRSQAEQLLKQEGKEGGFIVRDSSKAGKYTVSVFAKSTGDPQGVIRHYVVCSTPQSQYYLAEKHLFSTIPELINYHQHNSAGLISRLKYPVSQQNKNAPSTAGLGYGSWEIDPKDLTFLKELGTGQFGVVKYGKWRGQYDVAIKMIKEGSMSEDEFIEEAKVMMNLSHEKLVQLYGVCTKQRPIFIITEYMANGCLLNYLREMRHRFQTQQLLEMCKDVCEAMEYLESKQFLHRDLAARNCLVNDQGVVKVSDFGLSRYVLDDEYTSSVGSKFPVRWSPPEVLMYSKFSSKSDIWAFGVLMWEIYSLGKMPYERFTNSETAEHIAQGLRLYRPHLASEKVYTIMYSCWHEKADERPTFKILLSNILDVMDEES

Lyn [2] = target: T1, Lyn; details: read-out: Lyn IC50

Sequence of Src (P12931 whole entry, looked up): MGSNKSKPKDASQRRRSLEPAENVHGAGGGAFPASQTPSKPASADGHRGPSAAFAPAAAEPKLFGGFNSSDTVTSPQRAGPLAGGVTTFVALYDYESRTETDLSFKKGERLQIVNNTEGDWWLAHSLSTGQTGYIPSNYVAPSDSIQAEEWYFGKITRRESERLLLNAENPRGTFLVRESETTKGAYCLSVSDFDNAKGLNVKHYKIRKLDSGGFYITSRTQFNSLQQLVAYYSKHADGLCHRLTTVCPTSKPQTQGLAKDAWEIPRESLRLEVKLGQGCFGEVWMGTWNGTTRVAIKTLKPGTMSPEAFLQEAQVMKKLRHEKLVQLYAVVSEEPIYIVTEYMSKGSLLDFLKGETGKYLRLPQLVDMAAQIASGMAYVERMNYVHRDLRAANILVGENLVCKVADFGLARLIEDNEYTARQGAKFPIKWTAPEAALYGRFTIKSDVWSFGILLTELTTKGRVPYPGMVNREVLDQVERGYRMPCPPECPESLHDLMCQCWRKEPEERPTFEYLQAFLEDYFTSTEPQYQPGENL

SMILES | EC50 (DoHH2) [nM] | IC50 (Src) [nM] | EC50 (Ramos; 48 h) [nM] | IC50 (Lyn [1]; Lyn IC50) [nM] | IC50 (BTK) [nM] | EC50 (Ramos; 48 hrs) [nM] | IC50 (Lyn [1]) [nM] | IC50 (BTK; read-out: BTK IC50) [nM] | IC50 (Lyn [2]) [nM]
CCN(CC)CCOc1ccc(Nc2cc3c(cn2)cc(-c2ccccc2)c(=O)n3C2CCN(C)C2)nc1 (stereo not shown) [Compound 58, 7-((5-(2-(diethylamino)ethoxy)pyridin-2-yl)amino)-1-(1-methylpyrrolidin-3-yl)-3-phenyl-1,6-naphthyridin-2(1H)-one] | 1000 to 10000 | 100 to 1000 | > 10000 | 100 to 1000 | 1000 to 5000 | – | – | – | –
NCCn1c(=O)c(-c2c(F)cccc2F)cc2cnc(Nc3ccc(F)cn3)cc21 [Compound 127, 1-(2-aminoethyl)-3-(2,6-difluorophenyl)-7-((5-fluoropyridin-2-yl)amino)-1,6-naphthyridin-2(1H)-one] | 1000 to 10000 | 100 to 1000 | – | – | – | > 10000 | 100 to 1000 | < 100 | –
CCN(CC)CCOc1ccc(Nc2cc3c(cn2)cc(C(C)C)c(=O)n3CC)nc1 [Compound 50, 7-[5-(2-Diethylamino-ethoxy)-pyridin-2-ylamino]-1-ethyl-3-isopropyl-1H-[1,6]naphthyridin-2-one] | 1000 to 10000 | 100 to 1000 | – | – | – | > 10000 | 100 to 1000 | – | –
CCn1c(=O)c(C2CC2)cc2cnc(Nc3ccc(C)cn3)cc21 [Compound 30, 3-Cyclopropyl-1-ethyl-7-(5-methyl-pyridin-2-ylamino)-1H-[1,6]naphthaayridin-2-one] | 1000 to 10000 | 100 to 1000 | 1000 to 10000 | – | – | – | 1000 to 5000 | > 5000 | –
CCn1c(=O)c(-c2ccccc2)cc2cnc(Nc3ccc(CN4CCN(S(C)(=O)=O)CC4)cn3)cc21 [Compound 111, 1-ethyl-7-((5-((4-(methylsulfonyl)piperazin-1-yl)methyl)pyridin-2-yl)amino)-3-phenyl-1,6-naphthyridin-2(1H)-one] | < 1000 | 100 to 1000 | – | – | – | 1000 to 10000 | 100 to 1000 | < 100 | –
O=c1c(-c2c(F)cccc2F)cc2cnc(Nc3ccc(F)cn3)cc2n1C1CCOC1 (single isomer, unassigned) [Compound 141, (S or R)-3-(2,6-difluorophenyl)-7-((5-fluoropyridin-2-yl)amino)-1-(tetrahydrofuran-3-yl)-1,6-naphthyridin-2(1H)-one] | < 1000 | < 100 | 1000 to 10000 | 100 to 1000 | – | – | – | – | –
CCn1c(=O)c(-c2cc([S+](C)[O-])ccc2F)cc2cnc(Nc3ccc(N(C)C4CCN(C)CC4)cn3)cc21 (stereo not shown) [Compound 117, 1-ethyl-3-(2-fluoro-5-(methylsulfinyl)phenyl)-7-((5-(methyl(1-methylpiperidin-4-yl)amino)pyridin-2-yl)amino)-1,6-naphthyridin-2(1H)-one] | 1000 to 10000 | 100 to 1000 | > 10000 | – | 100 to 1000 | – | < 100 | – | –
CCn1c(=O)c(-c2ccccc2)cc2cnc(Nc3ccc(OC)cn3)cc21 [Compound 51, 1-Ethyl-7-(5-methoxy-pyridin-2-ylamino)-3-phenyl-1H-[1,6]naphthayridin-2-one] | 1000 to 10000 | 100 to 1000 | – | – | 1000 to 5000 | > 10000 | 100 to 1000 | – | –
O=c1c(-c2c(F)cccc2F)cc2cnc(Nc3ccc(F)cn3)cc2n1[C@@H]1CCNC1 [Compound 151, (R)-3-(2,6-difluorophenyl)-7-((5-fluoropyridin-2-yl)amino)-1-(pyrrolidin-3-yl)-1,6-naphthyridin-2(1H)-one] | 1000 to 10000 | 100 to 1000 | – | – | – | > 10000 | 100 to 1000 | – | –
CCn1c(=O)c(C(C)=O)cc2cnc(Nc3ccc(C)cn3)cc21 [Compound 33] | > 10000 | 1000 to 5000 | – | – | – | > 10000 | – | > 5000 | > 5000
CCn1c(=O)c(-c2ccccc2)cc2cnc(Nc3cnccn3)cc21 [Compound 6, 1-Ethyl-3-phenyl-7-(pyrazin-2-ylamino)-1H-[1,6]naphthyridin-2-one] | > 10000 | 1000 to 5000 | – | – | 1000 to 5000 | > 10000 | 100 to 1000 | – | –
CCn1c(=O)c(-c2ccccc2)cc2cnc(Nc3ccc(N(C)C)cn3)cc21 [Compound 64, 7-(5-Dimethylamino-pyridin-2-ylamino)-1-ethyl-3-phenyl-1H-[1,6]naphthyridin-2-one] | < 1000 | 100 to 1000 | – | – | 1000 to 5000 | > 10000 | 100 to 1000 | – | –
CCn1c(=O)c(-c2ccc(C)cc2)cc2cnc(Nc3ccc(C)cn3)cc21 [Compound 40, 1-ethyl-7-(5-methylpyridin-2-ylamino)-3-p-tolyl-1,6-naphthyridin-2(1H)-one] | > 10000 | 100 to 1000 | > 10000 | – | – | – | – | > 5000 | > 5000
CCn1c(=O)c(-c2ccccc2)cc2cnc(Nc3ccc(OCCN(C)C)cn3)cc21 [Compound 48, 7-[5-(2-Dimethylamino-ethoxy)-pyridin-2-ylamino]-1-ethyl-3-phenyl-1H-[1,6]naphthyridin-2-one] | 1000 to 10000 | 1000 to 5000 | – | – | 1000 to 5000 | > 10000 | 100 to 1000 | – | –
CC#Cc1cc2cnc(Nc3ccc(C)cn3)cc2n(CC)c1=O [Compound 21] | 1000 to 10000 | 100 to 1000 | – | – | – | 1000 to 10000 | – | > 5000 | > 5000
CCn1c(=O)c(-c2ccccc2)cc2cnc(Nc3ccc(N4CCOCC4)cn3)cc21 [Compound 44, 1-Ethyl-7-(5-morpholin-4-yl-pyridin-2-ylamino)-3-phenyl-1H-[1,6]naphthyridin-2-one] | < 1000 | 100 to 1000 | – | – | – | 1000 to 10000 | 100 to 1000 | > 5000 | –
CCN(CC)CCOc1ccc(Nc2cc3c(cn2)cc(-c2ccccc2)c(=O)n3CC2CCN(C)C2)nc1 (stereo not shown) [Compound 65, 7-((5-(2-(diethylamino)ethoxy)pyridin-2-yl)amino)-1-((1-methylpyrrolidin-3-yl)methyl)-3-phenyl-1,6-naphthyridin-2(1H)-one] | < 1000 | 100 to 1000 | > 10000 | 1000 to 5000 | – | – | – | > 5000 | –
CCn1c(=O)c(-c2ccccc2)cc2cnc(Nc3ccccn3)cc21 [Compound 7, 1-Ethyl-3-phenyl-7-(pyridin-2-ylamino)-1H-[1,6]naphthyridin-2-one] | 1000 to 10000 | 100 to 1000 | > 10000 | – | 100 to 1000 | – | 1000 to 5000 | – | –
CCn1c(=O)c(C#CCO)cc2cnc(Nc3ccc(C)cn3)cc21 [Compound 53] | 1000 to 10000 | 100 to 1000 | – | – | – | 1000 to 10000 | 1000 to 5000 | > 5000 | –
CCN(CC)CCOc1ccc(Nc2cc3[nH]c(=O)c(C(C)C)cc3cn2)nc1 [Compound 49, 7-(5-(2-(diethylamino)ethoxy)pyridin-2-ylamino)-3-isopropyl-1,6-naphthyridin-2(1H)-one] | 1000 to 10000 | 100 to 1000 | > 10000 | – | 1000 to 5000 | – | 100 to 1000 | – | –
CCN(CC)CCOc1ccc(Nc2cc3[nH]c(=O)c(-c4ccccc4)cc3cn2)nc1 [Compound 14, 7-[5-(2-Diethylamino-ethoxy)-pyridin-2-ylamino]-3-phenyl-1H-[1,6]naphthyridin-2-one] | 1000 to 10000 | 100 to 1000 | – | – | – | > 10000 | 100 to 1000 | < 100 | –
CCn1c(=O)c(C2CCCC2)cc2cnc(Nc3ccc(C)cn3)cc21 [Compound 31, 3-Cyclopentyl-1-ethyl-7-(5-methyl-pyridin-2-ylamino)-1H-[1,6]naphthayridin-2-one] | > 10000 | 100 to 1000 | 1000 to 10000 | – | – | – | – | > 5000 | > 5000
CCn1c(=O)c(-c2ccccc2)cc2cnc(Nc3cn(C)cn3)cc21 [Compound 113, 1-ethyl-7-((1-methyl-1H-imidazol-4-yl)amino)-3-phenyl-1,6-naphthyridin-2(1H)-one] | > 10000 | 100 to 1000 | > 10000 | – | 1000 to 5000 | – | 100 to 1000 | – | –
CCn1c(=O)c(-c2ccccc2)cc2cnc(Nc3ccc(CN4CCNCC4)cn3)cc21 [Compound 110, 1-ethyl-3-phenyl-7-((5-(piperazin-1-ylmethyl)pyridin-2-yl)amino)-1,6-naphthyridin-2(1H)-one] | < 1000 | 100 to 1000 | – | – | – | 1000 to 10000 | 100 to 1000 | < 100 | –
CCN(CC)CCOc1ccc(Nc2cc3c(cn2)cc(-c2ccc(SC)cc2)c(=O)n3CC)nc1 [Compound 104, 7-((5-(2-(diethylamino)ethoxy)pyridin-2-yl)amino)-1-ethyl-3-(4-(methylthio)phenyl)-1,6-naphthyridin-2(1H)-one] | 1000 to 10000 | 100 to 1000 | 1000 to 10000 | – | – | – | 100 to 1000 | > 5000 | –
CCN(CC)CCOc1ccc(Nc2cc3c(cn2)cc(C(C)C)c(=O)n3CCOC)nc1 [Compound 57, 7-[5-(2-Diethylamino-ethoxy)-pyridin-2-ylamino]-3-isopropyl-1-(2-methoxy-ethyl)-1H-[1,6]naphthyridin-2-one] | 1000 to 10000 | 100 to 1000 | – | – | 1000 to 5000 | > 10000 | – | – | > 5000
CCn1c(=O)c(C#CCOC)cc2cnc(Nc3ccc(C)cn3)cc21 [Compound 32] | > 10000 | 1000 to 5000 | > 10000 | – | – | – | – | > 5000 | > 5000
CN1CCC(n2c(=O)c(-c3c(F)cccc3F)cc3cnc(Nc4ccc(F)cn4)cc32)C1 (stereo not shown) [Compound 85, 3-(2,6-difluorophenyl)-7-((5-fluoropyridin-2-yl)amino)-1-(1-methylpyrrolidin-3-yl)-1,6-naphthyridin-2(1H)-one] | 1000 to 10000 | 1000 to 5000 | > 10000 | 1000 to 5000 | – | – | – | – | –
